# Measured values published in publication PMC4674339 (European journal of medicinal chemistry, 2015).
# Like-named read-outs stand apart in the source and are kept apart here.
# What was measured:
# P2Y1 = details: read-out: EC50 toward P2Y1; functional assay; cited from earlier work
# P2Y12 = details: read-out: EC50 toward P2Y12; functional assay; cited from earlier work
# [1] = tested on: ADP induced human platelet aggregation; assay: ADP-induced human platelet aggregation, 96-well microplate method; type: cell-based
# platelet P2X1 receptors [2] = target: T1, platelet P2X1 receptors (Homo sapiens, UniProt P51575); assay: P2X1-mediated entry of extracellular Ca2+; type: cell-based
# T1 sequence (P51575 1-399): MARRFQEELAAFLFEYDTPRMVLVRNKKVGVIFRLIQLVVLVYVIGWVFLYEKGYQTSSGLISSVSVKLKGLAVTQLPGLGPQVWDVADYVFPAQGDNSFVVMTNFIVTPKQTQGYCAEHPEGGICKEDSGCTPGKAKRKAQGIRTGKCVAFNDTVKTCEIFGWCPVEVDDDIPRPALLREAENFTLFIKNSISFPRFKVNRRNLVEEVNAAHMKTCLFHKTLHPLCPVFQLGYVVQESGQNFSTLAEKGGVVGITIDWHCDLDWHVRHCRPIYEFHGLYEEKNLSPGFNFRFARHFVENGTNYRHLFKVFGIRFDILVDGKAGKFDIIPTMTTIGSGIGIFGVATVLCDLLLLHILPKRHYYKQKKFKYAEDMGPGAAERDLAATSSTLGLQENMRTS
# platelet P2X1 receptors [3] = target: T1, platelet P2X1 receptors; details: cited from earlier work
# [4] = target: T2, human platelet P2Y12 receptors (Homo sapiens, UniProt Q9H244); details: cited from earlier work
# T2 sequence (Q9H244 whole entry): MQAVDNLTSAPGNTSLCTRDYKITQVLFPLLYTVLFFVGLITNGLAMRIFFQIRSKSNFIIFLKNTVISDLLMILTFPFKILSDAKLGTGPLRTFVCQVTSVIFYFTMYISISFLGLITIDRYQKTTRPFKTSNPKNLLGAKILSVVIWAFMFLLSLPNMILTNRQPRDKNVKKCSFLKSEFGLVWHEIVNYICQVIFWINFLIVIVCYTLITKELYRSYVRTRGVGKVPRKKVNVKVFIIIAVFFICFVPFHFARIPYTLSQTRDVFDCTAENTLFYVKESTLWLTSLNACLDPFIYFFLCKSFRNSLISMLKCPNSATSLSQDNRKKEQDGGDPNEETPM
# [5] = target: human platelet P2Y1 receptors (Homo sapiens, UniProt P47900); details: read-out: P2Y1 inhibition IC50; cited from earlier work
# Chain of human platelet P2Y1 receptors (P47900 whole entry): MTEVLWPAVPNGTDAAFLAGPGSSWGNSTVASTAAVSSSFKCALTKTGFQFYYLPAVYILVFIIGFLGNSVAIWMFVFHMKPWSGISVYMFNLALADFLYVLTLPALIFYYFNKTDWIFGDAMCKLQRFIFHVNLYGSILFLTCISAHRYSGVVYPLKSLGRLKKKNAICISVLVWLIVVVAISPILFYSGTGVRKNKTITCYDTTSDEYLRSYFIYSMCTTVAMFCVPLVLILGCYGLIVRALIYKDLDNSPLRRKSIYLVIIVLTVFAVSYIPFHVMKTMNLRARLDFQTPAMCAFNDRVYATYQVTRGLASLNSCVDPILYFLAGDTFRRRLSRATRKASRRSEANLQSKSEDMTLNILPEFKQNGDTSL
# [6] = target: T2, human platelet P2Y12 receptors; assay: P2Y12-mediated VASP phosphorylation assay; type: cell-based
# [7] = read-out: IC50, nM (95% Confidence Interval), no pre-incubation, 3 μM ADP
# [8] = read-out: IC50, nM (95% Confidence Interval), pre-incubation with test compound, 5 μM ADP
# [9] = read-out: IC50, nM (95% Confidence Interval), pre-incubation with test compound, 20 μM ADP
Compound,"IC50 [1, 7] [nM]","IC50 [1, 8] [nM]","IC50 [1, 9] [nM]",other results
2-methylthioadenosine 5′-diphosphate [Compound 2-MeSADP],–,–,–,EC50 (P2Y1): 6 nM; EC50 (P2Y12): 0.3 nM
"Nc1ncnc2c1ncn2[C@@H]1O[C@H](COP(=O)(S)OP(=O)(O)C(Cl)P(=O)(O)OP(=O)(S)OC[C@H]2O[C@@H](n3cnc4c(N)ncnc43)[C@H](O)[C@@H]2O)[C@@H](O)[C@H]1O (mixture of isomers) [Compound 1, reference compound]",437,757,7680,–
"CCSc1nc(N)c2ncn([C@@H]3O[C@H](COP(=O)(S)OP(=O)(O)C(Cl)P(=O)(O)OP(=O)(S)OC[C@H]4O[C@@H](n5cnc6c(N)nc(SCC)nc65)[C@H](O)[C@@H]4O)[C@@H](O)[C@H]3O)c2n1 (mixture of isomers) [Compound 6, P^1,P^4-di-(2-ethylthio-5′-adenosine) P^1,P^4-dithio-P^2,P^3-chloromethylenetetraphosphate]",46.1,8.48,13.4,–
"CCCSc1nc(N)c2ncn([C@@H]3O[C@H](COP(=O)(S)OP(=O)(O)C(Cl)P(=O)(O)OP(=O)(S)OC[C@H]4O[C@@H](n5cnc6c(N)nc(SCCC)nc65)[C@H](O)[C@@H]4O)[C@@H](O)[C@H]3O)c2n1 (mixture of isomers) [Compound 7, P^1,P^4-di-(2-propylthio-5′-adenosine) P^1,P^4-dithio-P^2,P^3-chloromethylenetetraphosphate]",113,23.4,44.6,–
"CCCCCSc1nc(N)c2ncn([C@@H]3O[C@H](COP(=O)(S)OP(=O)(O)C(Cl)P(=O)(O)OP(=O)(S)OC[C@H]4O[C@@H](n5cnc6c(N)nc(SCCCCC)nc65)[C@H](O)[C@@H]4O)[C@@H](O)[C@H]3O)c2n1 (mixture of isomers) [Compound 9, P^1,P^4-di-(2-pentylthio-5′-adenosine) P^1,P^4-dithio-P^2,P^3-chloromethylenetetraphosphate]",1090,90.7,172,–
"Nc1nc(Cl)nc2c1ncn2[C@@H]1O[C@H](COP(=O)(S)OP(=O)(O)C(Cl)P(=O)(O)OP(=O)(S)OC[C@H]2O[C@@H](n3cnc4c(N)nc(Cl)nc43)[C@H](O)[C@@H]2O)[C@@H](O)[C@H]1O (mixture of isomers) [Compound 10, P^1,P^4-di-(2-chloro-5′-adenosine) P^1,P^4-dithio-P^2,P^3-chloromethylenetetra-phosphate]",140,369,2690,–
"CNc1ncnc2c1ncn2[C@@H]1O[C@H](COP(=O)(S)OP(=O)(O)C(Cl)P(=O)(O)OP(=O)(S)OC[C@H]2O[C@@H](n3cnc4c(NC)ncnc43)[C@H](O)[C@@H]2O)[C@@H](O)[C@H]1O (mixture of isomers) [Compound 13, P^1,P^4-di-(N^6-methyl-5′-adenosine) P^1,P^4-dithio-P^2,P^3-chloromethylenetetraphosphate]",5870,10700,37200,–
"CCCNc1ncnc2c1ncn2[C@@H]1O[C@H](COP(=O)(S)OP(=O)(O)C(Cl)P(=O)(O)OP(=O)(S)OC[C@H]2O[C@@H](n3cnc4c(NCCC)ncnc43)[C@H](O)[C@@H]2O)[C@@H](O)[C@H]1O (mixture of isomers) [Compound 14, P^1,P^4-di-(N^6-propyl-5′-adenosine) P^1,P^4-dithio-P^2,P^3-chloromethylenetetraphosphate]",3930,12000,22400,activation at 1 µM (platelet P2X1 receptors [2]; read-out: P2X1 activation %±SEM): -0.01 ± 0.91%
"CSc1nc(N)c2ncn([C@@H]3O[C@H](COP(=O)(S)OP(=O)(O)C(Cl)(Cl)P(=O)(O)OP(=O)(S)OC[C@H]4O[C@@H](n5cnc6c(N)nc(SC)nc65)[C@H](O)[C@@H]4O)[C@@H](O)[C@H]3O)c2n1 (mixture of isomers) [Compound 16, P^1,P^4-di-(2-methylthio-5′-adenosine) P^1,P^4-dithio-P^2,P^3-dichloromethylenetetraphosphate]",295,–,–,–
"Nc1ncnc2c1ncn2[C@@H]1O[C@H](COP(=O)(O)OP(=O)(O)O)[C@@H](O)[C@H]1O [ADP, adenosine diphosphate]",–,–,–,EC50 (P2Y1): 8000 nM; EC50 (P2Y12): 69 nM
"Nc1ncnc2c1ncn2[C@@H]1O[C@H](COP(=O)(O)OP(=O)(O)OP(=O)(O)OP(=O)(O)OC[C@H]2O[C@@H](n3cnc4c(N)ncnc43)[C@H](O)[C@@H]2O)[C@@H](O)[C@H]1O [Ap4A, P^1,P^4-Di(adenosine-5′) tetraphosphate]",–,–,–,P2X1 agonist activity (platelet P2X1 receptors [3]): effective P2X1 receptor agonist; P2Y12 antagonist character [4]: partial antagonist; IC50 ([4]; read-out: P2Y12 inhibition IC50): > 250000 nM; IC50 [5]: 32500 nM
"CSc1nc(N)c2ncn([C@@H]3O[C@H](COP(=O)([O-])OP(=O)([O-])OP(=O)([O-])OP(=O)([O-])OC[C@H]4O[C@@H](n5cnc6c(N)nc(SC)nc65)[C@H](O)[C@@H]4O)[C@@H](O)[C@H]3O)c2n1.[Na+].[Na+].[Na+].[Na+] [Compound 2, P^1,P^4-di-(2-Methylthio-5′-adenosine) tetraphosphate]",71.3,1020,3950,P2Y12 antagonist character [6]: full antagonist
"CNc1ncnc2c1ncn2[C@H]1C[C@H](OP(=O)(O)O)[C@@H](COP(=O)(O)O)O1 [MRS2179, reference compound]",–,–,–,"P2Y12 inhibition IC50±SEM ([6]; 3 μM ADP, VASP phosphorylation, human blood): Not inhibitor"

# The next lines start with results.
"IC50 [1, 7] [nM]","IC50 [1, 8] [nM]","IC50 [1, 9] [nM]",Compound,other results
61.8,70.3,731,"CSc1nc(N)c2ncn([C@@H]3O[C@H](COP(=O)(S)OP(=O)(O)OP(=O)(O)OP(=O)(S)OC[C@H]4O[C@@H](n5cnc6c(N)nc(SC)nc65)[C@H](O)[C@@H]4O)[C@@H](O)[C@H]3O)c2n1 (mixture of isomers) [Compound 3, P^1,P^4-di-(2-methylthio-5′-adenosine) P^1,P^4-dithiotetraphosphate]",–
144,15,26.6,"Nc1nc(SCCC(F)(F)F)nc2c1ncn2[C@@H]1O[C@H](COP(=O)(S)OP(=O)(O)C(Cl)P(=O)(O)OP(=O)(S)OC[C@H]2O[C@@H](n3cnc4c(N)nc(SCCC(F)(F)F)nc43)[C@H](O)[C@@H]2O)[C@@H](O)[C@H]1O (mixture of isomers) [Compound 8, P^1,P^4-di-(2-(3,3,3-trifluoropropylthylthio)-5′-adenosine) P^1,P^4-dithio-P^2,P^3-chloromethylenetetraphosphate]",–
87.8,173,936,"Nc1nc(Br)nc2c1ncn2[C@@H]1O[C@H](COP(=O)(S)OP(=O)(O)C(Cl)P(=O)(O)OP(=O)(S)OC[C@H]2O[C@@H](n3cnc4c(N)nc(Br)nc43)[C@H](O)[C@@H]2O)[C@@H](O)[C@H]1O (mixture of isomers) [Compound 11, P^1,P^4-di-(2-bromo-5′-adenosine) P^1,P^4-dithio-P^2,P^3-chloromethylenetetra-phosphate]",–
49.9,48.5,416,"Nc1nc(I)nc2c1ncn2[C@@H]1O[C@H](COP(=O)(S)OP(=O)(O)C(Cl)P(=O)(O)OP(=O)(S)OC[C@H]2O[C@@H](n3cnc4c(N)nc(I)nc43)[C@H](O)[C@@H]2O)[C@@H](O)[C@H]1O (mixture of isomers) [Compound 12, P^1,P^4-di-(2-iodo-5′-adenosine) P^1,P^4-dithio-P^2,P^3-chloromethylenetetra-phosphate]",–
616,–,–,"CNc1nc(SC)nc2c1ncn2[C@@H]1O[C@H](COP(=O)([S-])OP(=O)([O-])C(Cl)P(=O)([O-])OP(=O)([S-])OC[C@H]2O[C@@H](n3cnc4c(NC)nc(SC)nc43)[C@H](O)[C@@H]2O)[C@@H](O)[C@H]1O.[Na+].[Na+].[Na+].[Na+] (mixture of isomers) [Compound 15, P^1,P^4-di-(2-methylthio-N^6-methyl-5′-adenosine) P^1,P^4-dithio-P^2,P^3-chloromethylenetetraphosphate]",P2X1 agonist activity (platelet P2X1 receptors [2]): effective P2X1 agonist
33.1,8.89,32.6,"CSc1nc(N)c2ncn([C@@H]3O[C@H](COP(=O)(O)OP(=O)(O)C(Cl)P(=O)(O)OP(=O)(O)OC[C@H]4O[C@@H](n5cnc6c(N)nc(SC)nc65)[C@H](O)[C@@H]4O)[C@@H](O)[C@H]3O)c2n1 (some centres unmarked) [Compound 4, P^1,P^4-di-(2-methylthio-5′-adenosine) P^2,P^3-chloromethylenetetraphosphate]",–
